Data on 5 compounds can be found in EP0020230A2, “p-Biphenyl-4-methyl-2-butenoic acids, process for their preparation, pharmaceutical compositions containing them and their use” (PIERRE FABRE S.A., priority 1979, dated 1980).

For series [1], the system named is oedème provoqué par injection de carragénine dans la patte du rat. Kind of series: carrageenan-induced paw oedema (Winter, Risley, Nuss). Conditions: oral, suspension in tween-water, 2 hours before the test, read-out: ED 50 (dose diminuant de 50 % le volume de la patte). Type of series: in vivo. An excerpt:
Les propriétés anti-inflammatoires ont été révélées par le test de l'oedème provoqué par injection de carragénine dans la patte du rat selon la technique de C. Winter, E. Risley, et G. Nuss. Proc. Soc. Exper. Biol. Med., 1962, 111, 544-547.
Les produits ont été administrés par voie orale en suspension dans le mélange tween-eau 2 heures avant l'expérimentation.
(The carrageenan paw model is a standard test of acute inflammation.)

Series [2] deals with injection de phényl benzoquinone. Description: analgesic activity, phenylbenzoquinone test (Siegmund et al.). Type of series: in vivo. How it is done: L'activité antalgique a été étudiée selon Siegmund et Coll.
Les composés sont administrés par voie orale 30 minutes avant l'injection de phényl benzoquinone.

Series [3] relates to granulome aux pellets de coton. Kind of series: cotton pellet granuloma (Meier, Schuler, Desaulles). Type of series: in vivo. The conditions noted are these: 120 h; dose from which a clear reduction is seen; results read after 5 days; read-out: réduction nette du poids du granulome à partir de. How it is done: Les résultats obtenus sur le granulome aux pellets de coton selon la technique de R. Meier, Schuler et Desaulles - Experientia 1950, 6, 469, permettent de mettre en évidence une réduction nette du poids du granulome à partir de 10 mg/kg pour le F 1920 et le F 2073.
Les résultats sont relevés au bout de 5 jours et aucune modification n'est observée, comparativement aux témoins, en ce qui concerne

Series [4] in a line: acute oral toxicity (LD50, method of Miller and Tainter). Conditions: in vivo, mouse about 20 g, read-out: DL 50 voie orale. An excerpt:
L'étude de la toxicité a été effectuée chez la souris conventionnelle pesant environ 20 grammes..
Les substances ont été administrées par voie orale, la DL 50 est calculée suivant la méthode de L.C. Miller et M.L. Tainter, Proc. Soc. Exper. Biol. Med., 1944, 57, 261.

[5] abbreviates: oral, 30 minutes before injection of phenylbenzoquinone, read-out: DE 50 (the source's name).

Structures are written as SMILES. Like-named read-outs stand apart in the source and are kept apart here.

As for `CC(/C=C/c1ccc(-c2ccccc2)cc1)C(=O)O` (stereo not drawn) [F 1920, acide trans p-biphényl-4, méthyl-2 buten-3 oïque], the results for the ED50 in series [1] and in series [2] (setting [5]) were 25 mg/kg and 10 mg/kg, respectively. For the same compound, in series [3], the minimal effective dose is no less than 10 mg/kg. In series [4], the LD50 was 500 mg/kg.

In the case of `CC(=O)Oc1ccccc1C(=O)O` [Acide acétyl salicylique, reference compound], the ED50 in series [2] (po, read-out: DE 50) was found to be 100 mg/kg.

As for `O=C(OCC(O)CO)c1ccccc1Nc1ccnc2cc(Cl)ccc12` (stereo not drawn) [Glafénine, reference compound], in series [2] (setting [5]), the ED50 is 36 mg/kg.

Regarding `CC(/C=C/c1ccc(-c2ccccc2Cl)cc1)C(=O)O` (stereo not drawn) [F 2073, acide trans orthochlorophényl-4' phényl-4 méthyl-2 buten-3 oïque], the ED50 in series [1] stood at 15 mg/kg; in series [2] (setting [5]), 7 mg/kg. Further, the minimal effective dose in series [3] was no less than 10 mg/kg. Also, the LD50 in series [4] was found to be 750 mg/kg.

Consider `CC(/C=C/c1ccc(-c2ccccc2F)cc1)C(=O)O` (stereo not drawn) [Acide trans orthofluorophényl-4' phényl-4 méthyl-2 buten-3 oïque], for which, in series [2] (setting [5]), the ED50 was determined as 5 mg/kg. Moreover, the LD50 in series [4] turned out to be 1000 mg/kg.
